{"source": "patent EP3023007A1", "about": "“[…]” (JIANGSU ROTAM CHEMISTRY CO., LTD., priority 2013, dated 2015)", "key": {"[1]": {"test_system": "cabbage leaf spot", "test": "Toxicity test of leaf spot of cabbage (pot test on sprayed seedlings, EC50 and co-toxicity coefficient by Sun Yunpei's method)", "assay_type": "in vivo", "details": "for EC50 (PPM): cabbage seedlings, sprayed 24 h before inoculation, disease index after seven days; for TTI: toxicity index, cabbage leaf spot", "experimental": "(§1) The toxicity index of each of the formulations and the co-toxicity coefficient (CTC value) of the mixed formulation were calculated according to Sun Yunpei's method. […] Actual toxicity index (ATI) = (standard formulation EC50/testing formulation EC50)*100 [formula]\n(§2) Theoretical toxicity index (TTI) = (toxicity index of formulation A * percentage of A in the mixed formulation) + (toxicity index of formulation B * percentage of B in the mixed formulation) Co−toxicity coefficient (CTC) = [actual toxicity index(ATI) of the mixed formulation/theoretical toxicity index (TTI)of the mixed formulation]*100 [formula]\n(§3) The samples were selected from the cabbage seedlings in the same growing period. Three pots were selected for each treatment and each pot was sprayed with 5 mL with a potter spray tower at the pressure of 50 PSI and each chemical was set for 12 concentration gradients. Inoculation was carried out 24 hours after the treatment of the formulations. The conidiums from the leaves with cabbage leaf spot (collected from the field) was spread evenly on the cabbage seedlings, and the cabbage seedlings were then put in the green house for culturing.\n(§4) Seven days later, the disease index for the whole plant was studied according to the pathological grading standard of cabbage leaf spot. The prevention and control efficacy was determined, and the generalized least square method was then applied to calculate the half maximal effective concentration EC50. The Sun Yunpei's method was applied to calculate the co-toxicity coefficient (CTC). Table 3: Toxicity Test Result of Applying the Present Invention to Prevent and Control Leaf Spot of Cabbage"}, "[2]": {"test_system": "potato gray mold", "test": "Toxicity test of potato gray mold (pot test on sprayed seedlings, EC50 and co-toxicity coefficient by Sun Yunpei's method)", "assay_type": "in vivo", "details": "for EC50 (PPM): potato seedlings, sprayed 24 h before inoculation, disease index after seven days; for TTI: toxicity index, potato gray mold", "experimental": "as §1, §2\n(§5) The samples were selected from potato seedlings in the same growing period of three to four leaf stage. Three pots were selected for each treatment and each pot was sprayed with 5 mL with a potter spray tower at the pressure of 50 PSI and each chemical was set for 12 concentration gradients. Inoculation was carried out 24 hours after the treatment of the formulations. The conidiums from the leaves with potato gray mold (collected from a field) was spread evenly on the potato seedlings, and then the potato seedlings were put in the green house for culturing.\nas §4, with “potato gray mold.” for “cabbage leaf spot.”, “was” for “was then”, “2:” for “3:”, “Potato Gray Mold” for “Leaf Spot of Cabbage”"}, "[3]": {"test_system": "wheat downy mildew", "test": "Toxicity test of wheat downy mildew (pot test on sprayed seedlings, EC50 and co-toxicity coefficient by Sun Yunpei's method)", "assay_type": "in vivo", "details": "for TTI: toxicity index, wheat downy mildew; for EC50 (PPM): wheat seedlings, sprayed 24 h before inoculation, disease index after seven days", "experimental": "as §1, §2\nas §5, with “wheat” for “potato”, “wheat downy mildew” for “potato gray mold”\nas §4, with “wheat downy mildew.” for “cabbage leaf spot.”, “was” for “was then”, “1:” for “3:”, “Wheat Downy Mildew” for “Leaf Spot of Cabbage”"}, "[4]": {"test_system": "sclerotia sclerotium", "details": "after applying it once in a suitable period; cited from earlier work"}, "[5]": {"test_system": "potato cinerea", "test": "Activity of preventing and controlling grey mould of potato (Colby synergy test, visual observation)", "assay_type": "in vivo", "details": "Solanum tuberosum, potato seedlings in pots, read-out: Observed activity (%)", "from_the_text": "A synergistic effect exists when the fungicidal activity of the active compound composition is greater than the sum of the activities of the active compounds applied individually. The expected activity for a given combination of two active compounds can be calculated in accordance with Colby's formula (refer to S.R. Colby, \"Calculating Synergistic and Antagonistic Responses of Herbicide Combinations\", Weeds 1967, 15, 20-22) as follows: • If X denotes the activity when using active compound A at an application rate of mg/ha or in a concentration of mppm; • Y denotes the activity when using active compound B at an application rate of ng/ha or in a concentration of nppm; • E denotes the activity when using active compounds A and B at application rates of m and ng/ha or in concentration of m and n ppm;\nThen: E = X + Y−(X⋅Y)/(100) [formula]\nThe leaves of the potato seedlings in pots were sprayed with the suspension concentrate in a range of concentrations of the active compounds.\nThe next day, the treated plants were inoculated with a spore suspension of potato cinerea. The pots were then allowed to stand for 24 hours in a room at 20-22 °C and with high humidity (90-95%). During this period, the spores germinated and the germ tubes penetrated into the leaf tissues. […] Later, the development of cinerea on the leaves was determined by visual observation."}, "[6]": {"test_system": "tomato downy mildew", "test": "Toxicity test of downy mildew of tomato (pot test on sprayed seedlings, EC50 and co-toxicity coefficient by Sun Yunpei's method)", "assay_type": "in vivo", "details": "for EC50 (PPM): tomato seedlings, sprayed 24 h before inoculation, disease index after seven days; for TTI: toxicity index, tomato downy mildew", "experimental": "as §1, §2\nas §3, with “tomato” for “cabbage”, “set” for “set for”, “tomato downy mildew” for “cabbage leaf spot”\nas §4, with “tomato downy mildew.” for “cabbage leaf spot.”, “4:” for “3:”, “Tomato Downy Mildew” for “Leaf Spot of Cabbage”"}}, "data": [{"molecule": "O=C(Nc1ccccc1-c1ccc(Cl)cc1)c1cccnc1Cl", "note": "[Boscalid, 2-chloro-N-(4'-chlorobiphenyl-2-yl) nicotinamide]", "values": [{"measurement": "EC50 (PPM)", "setting": "[1]", "result": 26.13, "unit": "PPM"}, {"measurement": "TTI", "setting": "[1]", "result": 100}, {"measurement": "EC50 (PPM)", "setting": "[2]", "result": 15.23, "unit": "PPM"}, {"measurement": "TTI", "setting": "[2]", "result": 100}, {"measurement": "TTI", "setting": "[3]", "result": 100}, {"measurement": "EC50 (PPM)", "setting": "[3]", "result": 16.23, "unit": "PPM"}, {"measurement": "control effect and disease index", "setting": "[4]", "result": "more than 80%"}, {"measurement": "activity at 8 ppm", "setting": "[5]; Concentration 8 ppm", "result": 28, "unit": "%"}, {"measurement": "EC50 (PPM)", "setting": "[6]", "result": 22.24, "unit": "PPM"}, {"measurement": "TTI", "setting": "[6]", "result": 100}]}, {"molecule": "N#Cc1c(Cl)c(Cl)c(Cl)c(C#N)c1Cl", "note": "[Chlorothalonil, 2,4,5,6-tetrachloro-1,3-benzenedicarbonitrile]", "values": [{"measurement": "EC50 (PPM)", "setting": "[1]", "result": 38.03, "unit": "PPM"}, {"measurement": "TTI", "setting": "[1]", "result": 68.71}, {"measurement": "EC50 (PPM)", "setting": "[2]", "result": 38.03, "unit": "PPM"}, {"measurement": "TTI", "setting": "[2]", "result": 68.71}, {"measurement": "TTI", "setting": "[3]", "result": 86.5}, {"measurement": "EC50 (PPM)", "setting": "[3]", "result": 18.76, "unit": "PPM"}, {"measurement": "activity at 40 ppm", "setting": "[5]; Concentration 40 ppm", "result": 0, "unit": "%"}, {"measurement": "EC50 (PPM)", "setting": "[6]", "result": 32.27, "unit": "PPM"}, {"measurement": "TTI", "setting": "[6]", "result": 68.91}]}]}
